Measurements: patent publication US20230278957A1, “TREX1 INHIBITORS AND USES THEREOF” (WAKE FOREST UNIVERSITY HEALTH SCIENCES, priority 2020, published 2023)
Like-named read-outs stand apart in the source and are kept apart here.

Experiments:
[1] = molecular target: T1, recombinant hTREX1(1-242)WT (hT1) (Homo sapiens, UniProt Q9NSU2); assay: fluorescence-based exonuclease assay, hTREX1 IC50 and HTS; assay type: biochemical
T1 construct: recombinant hTREX1(1-242)^WT
T1 sequence (Q9NSU2 1-242): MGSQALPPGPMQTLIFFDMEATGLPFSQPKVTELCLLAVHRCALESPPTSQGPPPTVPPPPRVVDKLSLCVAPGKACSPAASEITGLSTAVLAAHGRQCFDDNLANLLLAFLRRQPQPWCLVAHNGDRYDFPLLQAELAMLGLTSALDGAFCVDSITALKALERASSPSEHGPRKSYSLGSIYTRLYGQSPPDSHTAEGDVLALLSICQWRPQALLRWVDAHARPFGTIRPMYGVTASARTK
Protocol: FIG. 1: Determining IC50 of Candidate Compounds. […] Standard time-course reactions were prepared in 150 µL volumes containing vehicle or indicated concentrations of inhibitor (Panel A= 0.1-10 µM; Panel C= 1-50 µM), incubated 1 hr at room temperature, and 20 µL samples of each reaction taken at time-points of 0, 5, 10, 20, 30, 45, & 60 minutes and quenched in 20 µL of 15X SYBR Green. Fluorescence was measured, and fluorescence versus time plots were normalized to maximal initial fluorescence and background fluorescence. Plots were fitted with nonlinear regression, then initial velocities of each reaction interpolated and normalized to vehicle-only control reactions to give percent activity. Plots of inhibitor concentration versus percent activity were fit with nonlinear regression to interpolate compound IC50. Plots were generated in Prism (GraphPad) and combined in PowerPoint. Active compounds had IC50 determined in at least three separate experiments. Panels E-F: Gel Assay Validation of Hit Compound IC50. Several hit compounds, including those shown, had their IC50 confirmed via gel assay to validate efficacy of the fluorescence-based biochemical assay. Results of the gel and fluorescence assays were in agreement for all compounds tested. Standard time-course reactions containing nicked plasmid were prepared in 150 µL volumes with the indicated concentrations of inhibitor, and incubated at room temperature. Reaction samples were taken at indicated times, quenched, dried in vacuo, resuspended, then visualized by agarose gel electrophoresis. Control lanes containing supercoiled dsDNA plasmid (‘Plasmid’) and undegraded nicked dsDNA plasmid (‘Nicked’) are included. Low-MW residual bands are ssDNA plasmid leftover from TREX1 exonuclease activity.
We altered a reported fluorescence-based exonuclease assay^17,23 for the purposes of HTS. The assay parameters were optimized to limit materials use and maximize the dynamic range of the assay readout. We used this assay to perform a HTS of the three mentioned libraries against recombinant hTREX1(1-242)^WT, hereafter abbreviated as ‘hT1’. In the case of all libraries, compounds eliciting ≤50% activity at their indicated screening concentrations were identified as ‘candidates’.
The biochemical assay used for HTS was also applied to determining candidate IC50. Briefly, time-course reactions were performed for a range of concentrations for each candidate, and plots of fluorescence vs time were normalized to the initial fluorescence of the reaction and the plate-wide background fluorescence. This normalization helped address compounds with inherent effects on the fluorescent readout. Initial velocities were calculated from normalized plots and used to calculate percent activities relative to vehicle-only control reactions. Standard dose-response curves were then constructed to interpolate candidate IC50. […] Candidates that initially tested with IC50 ≤100 µM had their IC50 redetermined in two additional, independent experiments. […] To validate the efficacy of the fluorescence-based assay at determining IC50, several of the hit compounds had their IC50 confirmed using a gel assay previously described by our lab^23. Briefly, a dsDNA plasmid is nicked, the substrate is incubated with TREX1 which degrades off (partially or completely) the nicked strand, and the reaction is quenched in ethanol, dried in vacuo, and visualized via agarose gel electrophoresis. Example data of these validation assays is provided (FIG. 1, Panels E-F).

[2] = molecular target: T2, TREX1 (Homo sapiens, UniProt Q9NSU2); assay: gel-based ssDNA degradation assay, inhibition kinetics; assay type: biochemical; settings: 15 nM or 515 nM FAM-labeled 30-mer oligo
T2 sequence (Q9NSU2 1-242): T1 sequence (Q9NSU2 1-242)
Protocol: Reactions are incubated at room temperature for 20 min, quenched, dried in vacuo, resuspended, and visualized on a urea-polyacrylamide gel. Initial velocities of each reaction are calculated via densitometric analysis of the gel, and then normalized to vehicle control reactions to calculate percent activities. Dose-response plots are fitted with nonlinear regression to interpolate IC50.

**Q.** How did the IC50 ([1]; experiment 1, read-out: IC50 #1) turn out when `O=C1c2ccccc2C(=O)c2c1cc(S(=O)(=O)O)c(O)c2O` [TIM009] was run?
**A.** 0.3 µM

**Q.** And the IC50 ([1]; experiment 2, read-out: IC50 #2)?
**A.** 1.1 µM

**Q.** What about the IC50 ([1]; experiment 3, read-out: IC50 #3) of the same molecule?
**A.** 1.5 µM

**Q.** What about the IC50 ([1]; median of three independent experiments, read-out: Median IC50) of the same molecule?
**A.** 1.1 µM

**Q.** What about the “mechanism of inhibition classification” value [2] of the same molecule?
**A.** mixed inhibitor
